system: IRE1-XBP1s (XBP1-RLuc splicing reporter in HEK293 T-REx cells); test: IRE1-XBP1s activation assay (XBP1-RLuc splicing reporter, HEK293 T-REx cells, luminescence relative to thapsigargin); type: cell-based; conditions: 18 h, compound 10 μM, HEK293 T-REx XBP1-RLuc reporter cells, relative to thapsigargin (Tg) 500 nM, read-out: Activity (IRE1-XBP1s activation, luminescence as % signal relative to thapsigargin, % Tg)
Procedure: IRE1-XBP1s activation Assay: HEK293 T-REx cells stably expressing the XBP1-RLuc splicing reporter were treated with an IRE1-XBP1s activator provided herein (10 μM) in the presence or absence of the IRE1 active site inhibitor 4μ8C (32 μM) for 18 h. Luminescence was shown as the percentage signal relative to thapsigargin (Tg) (500 nM, 18 h).

Compared with `Cc1ccc(OCCN(C)C(=O)Cn2cc(NC(=O)CCNc3ccccc3)cn2)cc1` [Compound 27], `Cc1ccc(OCCN(C)C(=O)Cn2cc(NC(=O)CCCc3ccccc3)cn2)cc1` [Compound 92, N-(1-(2-(methyl(2-(p-tolyloxy)ethyl)amino)-2-oxoethyl)-1H-pyrazol-4-yl)-4-phenylbutanamide] is lower in activation at 10 µM: over 50% for the first, under 30% for the second.

`COc1ccccc1OCCC(=O)Nc1cnn(CC(=O)N(C)CCOc2ccc(C)cc2)c1` [Compound 28] and `Cc1ccc(OCCN(C)C(=O)Cn2cc(NC(=O)CCOc3ccccc3C)cn2)cc1` [Compound 34] cannot be ordered by activation at 10 µM: over 50% for the first, over 50% for the second.

First: CN(CCOc1ccc(F)cc1)C(=O)Cn1cc(NC(=O)CCOc2ccccc2)cn1 [Compound 29]
Second: CCc1ccc(OCCN(C)C(=O)Cn2cc(NC(=O)CCOc3ccccc3F)cn2)cc1 [Compound 52]
The activation at 10 µM of the first is lower: under 30% for the first, 30 to 50% for the second.

Compared with `Cc1ccc(OCCN(C)C(=O)Cn2cc(NC(=O)CCOc3ccccc3Cl)cn2)cc1` [Compound 32], `Cc1ccc(OCCN(C)C(=O)Cn2cc(NC(=O)CCOc3c(F)cccc3Cl)cn2)cc1` [Compound 57] is lower in activation at 10 µM: over 50% for the first, 30 to 50% for the second.

`Cc1ccc(OCCN(C)C(=O)Cn2cc(NC(=O)CCOc3ccc4c(c3)OCO4)cn2)cc1` [Compound 33] and `Cc1ccc(OCCN(C)C(=O)Cn2cc(NC(=O)CCOc3ccnc(Br)c3)cn2)cc1` [Compound 98] cannot be ordered by activation at 10 µM: over 50% for the first, over 50% for the second.

`Cc1ccc(OCCN(C)C(=O)Cn2cc(NC(=O)CCOc3ccc(F)cc3C)cn2)cc1` [Compound 35] and `Cc1ccc(OCCN(C)C(=O)Cn2cc(NC(=O)CCOc3ccc(F)cc3F)cn2)cc1` [Compound 49] cannot be ordered by activation at 10 µM: over 50% for the first, over 50% for the second.

First: COc1cccc(OCCC(=O)Nc2cnn(CC(=O)N(C)CCOc3ccc(C)cc3)c2)c1 [Compound 36]
Second: COc1ccc(OCCC(=O)Nc2cnn(CC(=O)N(C)CCOc3ccc(C)cc3)c2)cc1 [Compound 42]
The activation at 10 µM of the first is higher: over 50% for the first, 30 to 50% for the second.

`Cc1ccc(OCCN(C)C(=O)Cn2cc(NC(=O)CCOc3cccc(N(C)C)c3)cn2)cc1` [Compound 38] and `Cc1ccc(OCCN(C)C(=O)Cn2cc(NC(=O)CCOc3cccc(CO)c3)cn2)cc1` [Compound 61] cannot be ordered by activation at 10 µM: over 50% for the first, over 50% for the second.

`Cc1ccc(OCCN(C)C(=O)Cn2cc(NC(=O)CCOc3ccc(C)cc3F)cn2)cc1` [Compound 39] and `[2H]C([2H])([2H])c1ccc(OCCN(C)C(=O)Cn2cc(NC(=O)CCOc3ccc(C)cc3F)cn2)cc1` [Compound 91] fall in the same range of activation at 10 µM: 30 to 50% for the first, 30 to 50% for the second.

Compared with `CN(CCOc1ccc(C(F)(F)F)cc1)C(=O)Cn1cc(NC(=O)CCOc2ccccc2F)cn1` [Compound 40], `Cc1ccc(OCCC(=O)Nc2cnn(CC(=O)N(C)CCOc3ccc(C(F)(F)F)cc3)c2)c(F)c1` [Compound 67] is lower in activation at 10 µM: over 50% for the first, under 30% for the second.

`CN(CCOc1cccnc1)C(=O)Cn1cc(NC(=O)CCOc2ccccc2F)cn1` [Compound 41] and `CN(CCOc1ccncc1)C(=O)Cn1cc(NC(=O)CCOc2ccccc2F)cn1` [Compound 55] cannot be ordered by activation at 10 µM: under 30% for the first, under 30% for the second.

`Cc1ccc(OCCN(C)C(=O)Cn2cc(NC(=O)CCOc3ccc(C(F)(F)F)cc3)cn2)cc1` [Compound 44] and `Cc1ccc(OCCN(C)C(=O)Cn2cc(NC(=O)CCOc3ccc(F)cc3C(F)(F)F)cn2)cc1` [Compound 60] cannot be ordered by activation at 10 µM: under 30% for the first, under 30% for the second.

Compared with `CN(CCOc1ccc(Cl)nc1)C(=O)Cn1cc(NC(=O)CCOc2ccccc2F)cn1` [Compound 45], `CN(CCOc1cc(Cl)ccn1)C(=O)Cn1cc(NC(=O)CCOc2ccccc2F)cn1` [Compound 47] is lower in activation at 10 µM: 30 to 50% for the first, under 30% for the second.

Going from `Cc1ccc(OCCN(C)C(=O)Cn2cc(NC(=O)C(C)COc3ccccc3)cn2)cc1` (stereo not shown) [Compound 46, 2-methyl-N-(1-(2-(methyl(2-(p-tolyloxy)ethyl)amino)-2-oxoethyl)-1H-pyrazol-4-yl)-3-phenoxypropanamide] to `Cc1ccc(OCCN(C)C(=O)Cn2cc(N(C)C(=O)CCOc3ccccc3)cn2)cc1` [Compound 50], the activation at 10 µM falls from over 50% to under 30%.

`Cc1ccc(OCCN(C)C(=O)Cn2cc(NC(=O)CCOc3ccc(Cl)cc3F)cn2)cc1` [Compound 48] and `Cc1ccc(OCCC(=O)Nc2cnn(CC(=O)N(C)CCOc3ccc(Cl)cc3)c2)c(F)c1` [Compound 71] cannot be ordered by activation at 10 µM: under 30% for the first, under 30% for the second.

Compared with `Cc1ccc(OCCN(C)C(=O)Cn2cc(N(C)C(=O)CCOc3ccccc3F)cn2)cc1` [Compound 51], `Cc1ccc(OCC(C)N(C)C(=O)Cn2cc(NC(=O)CCOc3ccccc3F)cn2)cc1` (stereo not shown) [Compound 53] is higher in activation at 10 µM: under 30% for the first, over 50% for the second.

Compared with `Cc1ccc(OCCN(C)C(=O)Cn2cc(NC(=O)CCOc3ccccc3OC(F)(F)F)cn2)cc1` [Compound 54], `Cc1ccc(OCCC(=O)Nc2cnn(CC(=O)N(C)CCOc3ccc(F)cc3)c2)c(F)c1` [Compound 75] is lower in activation at 10 µM: 30 to 50% for the first, under 30% for the second.

`Cc1ccc(OCCN(C)C(=O)Cn2cc(NC(=O)CCOc3c(F)cccc3F)cn2)cc1` [Compound 56] and `Cc1ccc(OC[C@H](C)N(C)C(=O)Cn2cc(NC(=O)CCOc3c(F)cccc3F)cn2)cc1` [Compound 81] cannot be ordered by activation at 10 µM: over 50% for the first, over 50% for the second.

First: Cc1ccc(OCCN(C)C(=O)Cn2cc(NC(=O)CCOc3c(C)cc(F)cc3C)cn2)cc1 [Compound 58]
Second: Cc1ccc(OCCN(C)C(=O)Cn2cc(NC(=O)CCOc3ncc(F)cc3C)cn2)cc1 [Compound 68]
The activation at 10 µM of the first is higher: 30 to 50% for the first, under 30% for the second.

Going from `CCc1cc(F)ccc1OCCC(=O)Nc1cnn(CC(=O)N(C)CCOc2ccc(C)cc2)c1` [Compound 59] to `Cc1ccc(OCCN(C)C(=O)Cn2cc(NC(=O)CCOc3ccc(F)cc3C(C)C)cn2)cc1` [Compound 66], the activation at 10 µM rises from under 30% to over 50%.

`Cc1ccc(OCCN(C)C(=O)Cn2cc(NC(=O)CCOc3ccc(F)cc3C)c(C)n2)cc1` [Compound 65] and `Cc1cc(F)ccc1OCCC(=O)Nc1cnn(CC(=O)N(C)CCOc2ccc(C(=O)O)cc2)c1` [Compound 88] cannot be ordered by activation at 10 µM: under 30% for the first, under 30% for the second.

`Cc1ccc(OCCC(=O)Nc2cnn(CC(=O)N(C)CCOc3cccc(OC(F)(F)F)c3)c2)c(F)c1` [Compound 69] and `COc1cccc(OCCN(C)C(=O)Cn2cc(NC(=O)CCOc3ccc(C)cc3F)cn2)c1` [Compound 74] cannot be ordered by activation at 10 µM: under 30% for the first, under 30% for the second.

`Cc1ccc(OCCC(=O)Nc2cnn(CC(=O)N(C)CCOc3ccc(F)c(F)c3)c2)c(F)c1` [Compound 70] and `Cc1ccc(OCCC(=O)Nc2cnn(CC(=O)N(C)CCOc3ccc(F)c(Cl)c3)c2)c(F)c1` [Compound 72] cannot be ordered by activation at 10 µM: under 30% for the first, under 30% for the second.

First: Cc1ccc(OCCC(=O)Nc2cnn(CC(=O)N(C)CCOc3ccc(C4CC4)cc3)c2)c(F)c1 [Compound 73]
Second: COc1ccc(OCCN(C)C(=O)Cn2cc(NC(=O)CCOc3ccc(C)cc3F)cn2)cc1 [Compound 77]
The activation at 10 µM of the first is higher: 30 to 50% for the first, under 30% for the second.

`Cc1ccc(OCCC(=O)Nc2cnn(CC(=O)N(C)CCOc3ccc(C)c(Cl)c3)c2)c(F)c1` [Compound 76] and `Cc1ccc(OCCC(=O)Nc2cnn(CC(=O)N(C)CCOc3ccc(C)c(C(F)(F)F)c3)c2)c(F)c1` [Compound 79] cannot be ordered by activation at 10 µM: under 30% for the first, under 30% for the second.

First: Cc1ccc(OCCC(=O)Nc2cnn(CC(=O)N(C)CCOc3ccc(F)c(OC(F)(F)F)c3)c2)c(F)c1 [Compound 78]
Second: Cc1ccc(OCCC(=O)Nc2cnn(CC(=O)N(C)CCOc3cc(F)c(C)c(F)c3)c2)c(F)c1 [Compound 85]
The activation at 10 µM of the first is lower: under 30% for the first, over 50% for the second.

`Cc1ccc(OCCC(=O)Nc2cnn(CC(=O)N(C)CCOc3ncc(F)cc3F)c2)c(F)c1` [Compound 80] and `Cc1ccc(OCCC(=O)Nc2cnn(CC(=O)N(C)CCOc3ncn(C)n3)c2)c(F)c1` [Compound 90] cannot be ordered by activation at 10 µM: under 30% for the first, under 30% for the second.

Going from `Cc1ccc(OC[C@@H](C)N(C)C(=O)Cn2cc(NC(=O)CCOc3c(F)cccc3F)cn2)cc1` [Compound 82] to `Cc1ccc(OCCN(C)C(=O)Cn2cc(NC(=O)CCOc3c(F)cncc3Br)cn2)cc1` [Compound 97], the activation at 10 µM falls from over 50% to under 30%.

`Cc1ccc(OCCN(C)C(=O)Cn2cc(NC(=O)CNCc3cccnc3N)cn2)cc1` [Compound 83] and `Cc1ccc(OCCN(C)C(=O)Cn2cc(NC(=O)COCc3cccnc3N)cn2)cc1` [Compound 84] cannot be ordered by activation at 10 µM: under 30% for the first, under 30% for the second.

Going from `Cc1ccc(OCCC(=O)Nc2cnn(CC(=O)N(C)CCOc3ccc(C(F)F)cc3)c2)c(F)c1` [Compound 86] to `Cc1ccc(OCCC(=O)Nc2cnn(CC(=O)N(C)CCOc3ccc(C4(F)CC4)cc3)c2)c(F)c1` [Compound 89], the activation at 10 µM falls from over 50% to under 30%.

`Cc1ccc(OCCN(C)C(=O)Cn2cc(NC(=O)CCNc3ncc(C)cn3)cn2)cc1` [Compound 93] and `COc1ccc(OCCN(C)C(=O)Cn2cc(NC(=O)CCOc3ccnc(F)c3)cn2)cc1` [Compound 96] cannot be ordered by activation at 10 µM: under 30% for the first, under 30% for the second.

Compared with `CN(CCOc1ccc(C(F)(F)F)cn1)C(=O)Cn1cc(NC(=O)CCOc2ccc(Cl)cc2F)cn1` [Compound 94], `CN(CCOc1ccc(C(F)(F)F)cn1)C(=O)Cn1cc(NC(=O)CCOc2ccnc(N)c2)cn1` [Compound 95] is lower in activation at 10 µM: 30 to 50% for the first, under 30% for the second.

same assay, conditions: 18 h, read-out: Activity (IRE1-XBP1s activation, luminescence as % signal relative to thapsigargin, % Tg)

First: Cc1ccc(OCCN(C)C(=O)Cn2cc(NC(=O)C(C)(C)COc3ccccc3)cn2)cc1 [Compound 37, 2,2-dimethyl-N-(1-(2-(methyl(2-(p-tolyloxy)ethyl)amino)-2-oxoethyl)-1H-pyrazol-4-yl)-3-phenoxypropanamide]
Second: Cc1ccc(OCC(C)(C)N(C)C(=O)Cn2cc(NC(=O)CCOc3ccccc3F)cn2)cc1 [Compound 63]
The activation at 10 µM of the first is lower: under 30% for the first, over 50% for the second.

With `CN(CCOc1ccccn1)C(=O)Cn1cc(NC(=O)CCOc2ccccc2F)cn1` [Compound 43, 3-(2-fluorophenoxy)-N-(1-(2-(methyl(2-(pyridin-2-yloxy)ethyl)amino)-2-oxoethyl)-1H-pyrazol-4-yl)propanamide] the activation at 10 µM was under 30%.

From patent US20260193236A1 (Protego Biopharma, Inc., priority 2022, published 2026)
